Measured values published in article PMC7305236, “The atypical chemokine receptor ACKR3/CXCR7 is a broad-spectrum scavenger for opioid peptides” (Nature Communications, 2020).
Where two headings read alike, the source gives them in different places. Starred links: 1 amine or outer side, 2 acyl side, 3 side chain; linkers in the order of their positions; H or OH if unused. Non-standard residues stand in square brackets, D forms with d. Residues, ends and D or L forms follow the SMILES beside them. X1 = N[C@@H](Cc1ccccc1)CN(CC(=O)[*:2])[*:1]

Columns and labels:
Test in all cases: Figure S2a opioid peptide screen on chemokine receptors
Design in all cases: dose or concentration left out as unconfirmed
[1] = target: T1, CCR6 (Homo sapiens, UniProt P51684); assay type: cell-based
T1 construct: expressed in transfected cells
T1 sequence (P51684 1-374): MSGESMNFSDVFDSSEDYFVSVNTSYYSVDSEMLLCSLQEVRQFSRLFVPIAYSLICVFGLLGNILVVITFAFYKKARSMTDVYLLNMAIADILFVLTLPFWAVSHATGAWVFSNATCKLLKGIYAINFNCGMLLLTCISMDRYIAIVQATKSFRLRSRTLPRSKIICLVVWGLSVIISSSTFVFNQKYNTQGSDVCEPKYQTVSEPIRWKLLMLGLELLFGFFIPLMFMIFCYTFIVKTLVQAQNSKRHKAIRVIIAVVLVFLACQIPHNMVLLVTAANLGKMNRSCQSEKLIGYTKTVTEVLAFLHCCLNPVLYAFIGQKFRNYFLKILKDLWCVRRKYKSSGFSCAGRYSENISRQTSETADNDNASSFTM

[2] = target: T2, CXCR3A (Homo sapiens, UniProt P49682); assay type: cell-based
T2 construct: expressed in transfected cells; host or cells: U87 cells
T2 sequence (P49682 1-368): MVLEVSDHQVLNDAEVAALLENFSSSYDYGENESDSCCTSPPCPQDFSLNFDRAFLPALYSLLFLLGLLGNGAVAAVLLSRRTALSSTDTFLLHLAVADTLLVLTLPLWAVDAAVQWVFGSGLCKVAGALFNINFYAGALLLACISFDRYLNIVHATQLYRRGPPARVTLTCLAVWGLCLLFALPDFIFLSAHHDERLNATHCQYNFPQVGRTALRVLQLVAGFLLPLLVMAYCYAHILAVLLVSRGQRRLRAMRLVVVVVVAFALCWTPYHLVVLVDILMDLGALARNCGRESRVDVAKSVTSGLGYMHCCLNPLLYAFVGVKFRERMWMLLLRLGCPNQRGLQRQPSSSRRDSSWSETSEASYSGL

[3] = target: CCR8 (Homo sapiens, UniProt P51685); conditions: read-out: CCR8 activity, ctrl+ = 100, Figure S2a
Sequence of CCR8 (P51685 whole entry): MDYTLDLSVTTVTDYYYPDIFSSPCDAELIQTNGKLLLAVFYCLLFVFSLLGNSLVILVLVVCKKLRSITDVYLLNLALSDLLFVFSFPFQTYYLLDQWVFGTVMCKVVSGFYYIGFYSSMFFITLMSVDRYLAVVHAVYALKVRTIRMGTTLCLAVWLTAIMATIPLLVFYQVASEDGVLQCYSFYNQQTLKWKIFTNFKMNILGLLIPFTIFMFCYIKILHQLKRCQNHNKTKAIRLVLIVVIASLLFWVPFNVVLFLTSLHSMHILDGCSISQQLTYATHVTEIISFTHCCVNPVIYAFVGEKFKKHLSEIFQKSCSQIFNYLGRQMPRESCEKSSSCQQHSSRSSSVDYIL

[4] = target: T3, CXCR3B (Homo sapiens, UniProt P49682); assay type: cell-based
T3 construct: expressed in transfected cells; host or cells: U87 cells
T3 sequence (P49682 1-415 isoform P49682-2): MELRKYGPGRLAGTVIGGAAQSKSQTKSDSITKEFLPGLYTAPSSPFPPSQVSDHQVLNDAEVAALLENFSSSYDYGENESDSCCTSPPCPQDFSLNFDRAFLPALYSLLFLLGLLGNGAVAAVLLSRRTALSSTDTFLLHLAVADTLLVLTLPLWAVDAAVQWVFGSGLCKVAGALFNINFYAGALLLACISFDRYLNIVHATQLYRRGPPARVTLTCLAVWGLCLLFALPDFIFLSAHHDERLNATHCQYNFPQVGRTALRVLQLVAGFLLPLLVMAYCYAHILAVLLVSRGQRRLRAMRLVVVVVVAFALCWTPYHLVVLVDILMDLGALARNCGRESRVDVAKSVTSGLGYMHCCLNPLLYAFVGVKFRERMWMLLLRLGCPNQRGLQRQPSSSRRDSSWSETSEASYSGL

[5] = target: T4, CCR1 (Homo sapiens, UniProt P32246); assay type: cell-based
T4 construct: expressed in transfected cells
T4 sequence (P32246 1-355): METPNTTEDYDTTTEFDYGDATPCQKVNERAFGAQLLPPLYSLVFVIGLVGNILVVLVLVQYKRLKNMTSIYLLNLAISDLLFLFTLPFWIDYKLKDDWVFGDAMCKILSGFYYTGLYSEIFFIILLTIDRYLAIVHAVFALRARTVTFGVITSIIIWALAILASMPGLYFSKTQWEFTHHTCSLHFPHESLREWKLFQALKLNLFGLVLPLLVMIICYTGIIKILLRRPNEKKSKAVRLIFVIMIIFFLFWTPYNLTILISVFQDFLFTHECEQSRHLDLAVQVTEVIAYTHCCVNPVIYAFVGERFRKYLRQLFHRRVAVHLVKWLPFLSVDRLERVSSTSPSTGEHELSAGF

[6] = target: T5, CCR5 (Homo sapiens, UniProt P51681); assay type: cell-based
T5 construct: expressed in transfected cells
T5 sequence (P51681 whole entry): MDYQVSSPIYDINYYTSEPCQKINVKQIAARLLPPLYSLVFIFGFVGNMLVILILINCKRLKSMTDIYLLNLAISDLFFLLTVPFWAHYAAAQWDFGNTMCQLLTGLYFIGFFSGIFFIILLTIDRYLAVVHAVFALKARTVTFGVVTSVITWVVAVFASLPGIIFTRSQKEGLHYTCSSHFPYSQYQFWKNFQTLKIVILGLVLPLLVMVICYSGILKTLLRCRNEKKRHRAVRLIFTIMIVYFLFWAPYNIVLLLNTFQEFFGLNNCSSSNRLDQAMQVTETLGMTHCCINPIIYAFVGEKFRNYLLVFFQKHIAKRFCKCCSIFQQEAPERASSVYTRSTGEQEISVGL

[7] = target: T6, ACKR2 (Homo sapiens, UniProt O00590); assay type: cell-based
T6 construct: expressed in transfected cells; host or cells: U87 cells (human glioblastoma)
T6 sequence (O00590 1-384): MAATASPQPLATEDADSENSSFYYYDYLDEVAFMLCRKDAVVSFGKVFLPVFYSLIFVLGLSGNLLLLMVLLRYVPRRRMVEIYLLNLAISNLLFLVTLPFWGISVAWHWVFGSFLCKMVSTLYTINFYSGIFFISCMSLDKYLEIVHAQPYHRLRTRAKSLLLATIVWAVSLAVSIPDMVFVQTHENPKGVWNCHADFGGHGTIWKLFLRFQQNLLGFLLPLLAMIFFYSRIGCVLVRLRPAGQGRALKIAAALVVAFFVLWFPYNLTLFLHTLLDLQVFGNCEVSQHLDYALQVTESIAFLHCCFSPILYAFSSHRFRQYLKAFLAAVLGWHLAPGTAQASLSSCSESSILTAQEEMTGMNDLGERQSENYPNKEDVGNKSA

[8] = replicate 1, read-out: CCR6 activity, ctrl+ = 100
[9] = replicate 2, read-out: CCR6 activity, ctrl+ = 100
[10] = replicate 3, read-out: CCR6 activity, ctrl+ = 100
[11] = replicate 1, read-out: CXCR3A activity, ctrl+ = 100
[12] = replicate 2, read-out: CXCR3A activity, ctrl+ = 100
[13] = replicate 3, read-out: CXCR3A activity, ctrl+ = 100
[14] = replicate 1, read-out: CXCR3B activity, ctrl+ = 100
[15] = replicate 2, read-out: CXCR3B activity, ctrl+ = 100
[16] = replicate 3, read-out: CXCR3B activity, ctrl+ = 100
[17] = replicate 1, read-out: CCR1 activity, ctrl+ = 100
[18] = replicate 2, read-out: CCR1 activity, ctrl+ = 100
[19] = replicate 3, read-out: CCR1 activity, ctrl+ = 100
[20] = replicate 1, read-out: CCR5 activity, ctrl+ = 100
[21] = replicate 2, read-out: CCR5 activity, ctrl+ = 100
[22] = replicate 3, read-out: CCR5 activity, ctrl+ = 100
[23] = replicate 1, read-out: ACKR2 activity, ctrl+ = 100
[24] = replicate 2, read-out: ACKR2 activity, ctrl+ = 100
[25] = replicate 3, read-out: ACKR2 activity, ctrl+ = 100

Row | SMILES | activation [1, 8] | activation [1, 9] | activation [1, 10] | activation [2, 11] | activation [2, 12] | activation [2, 13] | activation ([3]; replicate 1) | activation ([3]; replicate 2) | activation ([3]; replicate 3) | activation [4, 14] | activation [4, 15] | activation [4, 16] | activation [5, 17] | activation [5, 18] | activation [5, 19] | activation [6, 20] | activation [6, 21] | activation [6, 22] | activation [7, 23] | activation [7, 24] | other results
1 | CSCC[C@H](NC(=O)[C@H](Cc1ccccc1)NC(=O)CNC(=O)CNC(=O)[C@@H](N)Cc1ccc(O)cc1)C(=O)N[C@@H](CCCNC(=N)N)C(=O)N[C@@H](CCCNC(=N)N)C(=O)N[C@H](C(N)=O)C(C)C [Adrenorphin] | -3.87% | 1.08% | -1.64% | -0.787% | 0.214% | 3.64% | -17.4% | -15.7% | -4% | 3.73% | 1.55% | 0.555% | -15% | 8.25% | -9.95% | 0.166% | -0.467% | -0.49% | -9.62% | -28.7% | activation [7, 25]: -0.924%
2 | C[C@H](NC(=O)CNC(=O)[C@@H](NC(=O)[C@H](Cc1ccccc1)NC(=O)CNC(=O)CNC[C@@H](N)Cc1ccccc1)[C@@H](C)O)C(=O)N[C@@H](CCCNC(=N)N)C(=O)N[C@@H](CCCCN)C(=O)N[C@@H](CO)C(=O)N[C@@H](C)C(=O)N[C@@H](CCCNC(=N)N)C(=O)N[C@@H](CCCCN)C(N)=O [FG Nociceptin 1-13] (H-[X1]GFTGARKSARK-NH2) | 0.145% | -0.683% | 5.07% | 2.13% | -1.45% | -3.37% | -24.5% | 3.75% | 4.53% | -0.717% | 1.26% | 8.05% | 5.65% | -10.1% | -16.6% | -0.325% | 0.224% | 0.582% | -51.1% | 36.5% | activation [7, 25]: 2.35%
3 | CC(C)C[C@H](NC(=O)[C@H](CCCCN)NC(=O)[C@H](CCCN=C(N)N)NC(=O)[C@H](C)NC(=O)[C@H](CO)NC(=O)[C@H](CCCCN)NC(=O)[C@H](CCCN=C(N)N)NC(=O)[C@H](C)NC(=O)CNC(=O)[C@@H](NC(=O)[C@H](Cc1ccccc1)NC(=O)CNC(=O)CNC(=O)[C@@H](N)Cc1ccccc1)[C@@H](C)O)C(=O)N[C@@H](C)C(=O)N[C@@H](CC(N)=O)C(=O)N[C@@H](CCC(N)=O)C(=O)O [Nociceptin] | -0.76% | 0.601% |  | -2.21% | -5.51% |  | 27.1% | -5.76% |  | -0.23% | -6.64% |  | -16.6% | -34.2% |  | 1.59% | -0.199% |  | -19.6% | -66.1% | 
4 | CSCC[C@H](NC(=O)[C@H](Cc1ccccc1)NC(=O)CNC(=O)CNC(=O)[C@@H](N)Cc1ccc(O)cc1)C(=O)N[C@@H](CCCNC(=N)N)C(=O)N[C@@H](CCCNC(=N)N)C(=O)N[C@H](C(=O)NCC(=O)N[C@@H](CCCNC(=N)N)C(=O)N1CCC[C@H]1C(=O)N[C@@H](CCC(=O)O)C(=O)N[C@@H](Cc1c[nH]c2ccccc12)C(=O)N[C@@H](Cc1c[nH]c2ccccc12)C(=O)N[C@@H](CCSC)C(=O)N[C@@H](CC(=O)O)C(=O)N[C@@H](Cc1ccc(O)cc1)C(=O)N[C@@H](CCC(N)=O)C(=O)N[C@@H](CCCCN)C(=O)N[C@@H](CCCNC(=N)N)C(=O)N[C@@H](Cc1ccc(O)cc1)C(=O)NCC(=O)O)C(C)C [BAM22] | -2.07% | -2.99% | -1.86% | 3.44% | 2.11% | 7.49% | -18.7% | -21.3% | -4.1% | -1.43% | 0.626% | 5.18% | -7.62% | 9.7% | 10.5% | 0.229% | -1.32% | -1.42% | -3.78% | -1.93% | activation [7, 25]: -0.478%
5 | CC[C@H](C)[C@H](NC(=O)[C@H](CCCNC(=N)N)NC(=O)[C@H](CCCNC(=N)N)NC(=O)[C@H](CC(C)C)NC(=O)[C@H](Cc1ccccc1)NC(=O)CNC(=O)CNC(=O)[C@@H](N)Cc1ccc(O)cc1)C(=O)N[C@@H](CCCNC(=N)N)C(=O)N1CCC[C@H]1C(=O)N[C@@H](CCCCN)C(=O)N[C@@H](CC(C)C)C(=O)N[C@@H](CCCCN)C(=O)O [Dynorphin 1-13] | -0.31% | -0.732% |  | -2.15% | -8.16% |  |  | -19.6% |  | 3.92% | -5.01% |  | -29% | -26.2% |  | -0.272% | -1.44% |  | -0.369% | -39.6% | 
6 | C[C@H](NC(=O)CNC(=O)[C@@H](NC(=O)[C@H](Cc1ccccc1)NC(=O)CNC(=O)CNC(=O)[C@@H](N)Cc1ccccc1)[C@@H](C)O)C(=O)N[C@@H](CCCNC(=N)N)C(=O)N[C@@H](CCCCN)C(=O)N[C@@H](CO)C(=O)N[C@@H](C)C(=O)N[C@@H](CCCNC(=N)N)C(=O)N[C@@H](CCCCN)C(N)=O [Nociceptin 1-13] | 0.552% | -0.975% | -0.351% | -0.431% | -4.46% | -5.38% | -35.6% | -2.22% | 6.11% | -2.86% | 1.14% | 7.41% | -0.621% | 1.74% | -35.9% | -0.291% | -0.592% | 0.907% | -54.6% | -2.02% | activation [7, 25]: 10.5%
